How the values were obtained:
recombinant human HDAC6 = recombinant human HDAC6 (Homo sapiens (Human), UniProt Q9UBN7); assay: Enzymatic screening, HDAC6 inhibition (fluorogenic FdL_G substrate); type: biochemical
In short: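 Enzyme was preincubated with compound (8 doses, triplicate, 1% DMSO) in 25 mM Tris-HCl pH 8, 130 mM NaCl, 0.05% Tween-20, 10% glycerol, with BSA. A FLUOR DE LYS-Green substrate was then added, and fluorescence was read after developer plus 2 μM TSA.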

recombinant human HDAC1 = recombinant human HDAC1 (Homo sapiens (Human), UniProt Q13547); assay: Enzymatic screening, HDAC1 inhibition (fluorogenic FdL_G substrate); type: biochemical
Chain of recombinant human HDAC1 (Q13547 whole entry): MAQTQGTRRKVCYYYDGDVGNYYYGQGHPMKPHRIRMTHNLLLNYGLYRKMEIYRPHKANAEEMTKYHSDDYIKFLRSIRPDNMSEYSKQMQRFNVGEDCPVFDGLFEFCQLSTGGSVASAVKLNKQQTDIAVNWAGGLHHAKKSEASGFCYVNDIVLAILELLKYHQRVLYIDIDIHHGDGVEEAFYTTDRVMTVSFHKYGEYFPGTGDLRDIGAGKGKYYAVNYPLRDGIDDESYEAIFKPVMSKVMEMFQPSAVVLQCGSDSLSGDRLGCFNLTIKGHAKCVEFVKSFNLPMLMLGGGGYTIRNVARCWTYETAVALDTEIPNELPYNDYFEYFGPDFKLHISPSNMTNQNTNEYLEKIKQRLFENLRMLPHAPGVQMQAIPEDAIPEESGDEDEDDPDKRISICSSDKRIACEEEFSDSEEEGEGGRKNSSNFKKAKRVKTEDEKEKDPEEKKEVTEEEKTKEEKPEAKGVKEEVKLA
In short: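 Recombinant human HDAC1 inhibition was measured fluorometrically using the FLUOR DE LYS-Green (FdL_G) substrate. Compounds at 8 doses (1% DMSO final) in Tris-HCl pH 8 buffer with NaCl, Tween-20 and glycerol were preincubated in triplicate with enzyme and 1 mg/mL BSA, then given substrate. Developer I plus 2 μM TSA was added, and fluorescence read after 25 minutes in the dark.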

Chain of recombinant human HDAC6 (Q9UBN7 whole entry): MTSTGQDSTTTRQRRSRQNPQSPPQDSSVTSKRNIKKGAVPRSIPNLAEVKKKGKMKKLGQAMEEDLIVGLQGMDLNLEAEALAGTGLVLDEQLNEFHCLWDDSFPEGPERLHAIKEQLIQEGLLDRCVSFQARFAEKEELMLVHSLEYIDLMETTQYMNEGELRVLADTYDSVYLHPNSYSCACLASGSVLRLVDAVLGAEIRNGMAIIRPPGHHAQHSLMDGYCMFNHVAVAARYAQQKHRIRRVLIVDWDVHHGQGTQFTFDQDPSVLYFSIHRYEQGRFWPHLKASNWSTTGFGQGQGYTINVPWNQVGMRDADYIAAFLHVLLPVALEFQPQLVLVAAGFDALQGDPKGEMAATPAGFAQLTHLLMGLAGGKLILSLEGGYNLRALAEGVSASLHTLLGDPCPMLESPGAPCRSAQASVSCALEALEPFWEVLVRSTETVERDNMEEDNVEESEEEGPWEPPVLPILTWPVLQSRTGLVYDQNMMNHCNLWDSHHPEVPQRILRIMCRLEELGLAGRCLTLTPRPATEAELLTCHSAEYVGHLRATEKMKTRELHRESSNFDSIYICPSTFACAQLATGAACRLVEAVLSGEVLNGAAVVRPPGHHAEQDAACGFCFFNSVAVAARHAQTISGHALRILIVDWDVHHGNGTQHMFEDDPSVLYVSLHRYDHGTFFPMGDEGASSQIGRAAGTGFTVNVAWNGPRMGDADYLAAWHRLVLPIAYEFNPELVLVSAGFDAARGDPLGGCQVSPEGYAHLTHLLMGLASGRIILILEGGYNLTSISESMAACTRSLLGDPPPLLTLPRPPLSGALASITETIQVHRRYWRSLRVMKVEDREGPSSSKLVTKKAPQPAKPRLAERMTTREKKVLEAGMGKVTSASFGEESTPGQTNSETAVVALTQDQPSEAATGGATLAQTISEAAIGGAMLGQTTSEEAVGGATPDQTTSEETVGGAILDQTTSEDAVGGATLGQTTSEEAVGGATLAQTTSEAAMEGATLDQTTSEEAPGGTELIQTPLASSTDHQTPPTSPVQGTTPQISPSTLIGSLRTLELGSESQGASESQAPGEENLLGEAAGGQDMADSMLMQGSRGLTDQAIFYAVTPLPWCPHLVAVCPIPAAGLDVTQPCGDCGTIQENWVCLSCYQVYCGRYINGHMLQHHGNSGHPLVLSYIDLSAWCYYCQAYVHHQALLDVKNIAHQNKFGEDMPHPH

IC50 (recombinant human HDAC6) [nM]	IC50 (recombinant human HDAC1) [nM]	SMILES
40	> 1e+06	Nc1nc2ccc(-c3cnn(Cc4ccc(-c5nnc(C(F)F)o5)cn4)c3)cc2s1 [compound 327, 6-[1-[[5-[5-(difluoromethyl)-1,3,4-oxadiazol-2-yl]pyridin-2-yl]methyl]pyrazol-4-yl]-1,3-benzothiazol-2-amine]
14	> 1e+06	Cn1c(N)nc2cc(-c3cn(Cc4ccc(-c5nnc(C(F)F)o5)cn4)cn3)ccc21 [compound 328, 5-[1-[[5-[5-(difluoromethyl)-1,3,4-oxadiazol-2-yl]pyridin-2-yl]methyl]imidazol-4-yl]-1-methylbenzimidazol-2-amine]
27	> 1e+06	Cn1c(N)nc2cc(-c3cn(Cc4ccc(-c5nnc(C(F)F)o5)cc4)cn3)ccc21 [compound 329, 5-[1-[[4-[5-(difluoromethyl)-1,3,4-oxadiazol-2-yl]phenyl]methyl]imidazol-4-yl]-1-methylbenzimidazol-2-amine]
465	> 1e+06	Nc1ccc(-c2ncc(Cc3ccc(-c4nnc(C(F)F)o4)cc3)o2)cc1 [compound 330, 4-(5-(4-(5-(difluoromethyl)-1,3,4-oxadiazol-2-yl)benzyl)oxazol-2-yl)aniline]
52	> 1e+06	Nc1nc2cc(-c3cnn(Cc4ccc(-c5nnc(C(F)F)o5)cn4)c3)ccc2[nH]1 [compound 331, 5-[1-[[5-[5-(difluoromethyl)-1,3,4-oxadiazol-2-yl]pyridin-2-yl]methyl]pyrazol-4-yl]-1H-benzimidazol-2-amine]
67	> 1e+06	Nc1nc2cc(-c3cnn(Cc4ccc(-c5nnc(C(F)F)o5)cc4)c3)ccc2[nH]1 [compound 332, 5-[1-[[4-[5-(difluoromethyl)-1,3,4-oxadiazol-2-yl]phenyl]methyl]pyrazol-4-yl]-1H-benzimidazol-2-amine]
321	> 1e+06	NC(=O)c1cccc(-c2cnn(Cc3ccc(-c4nnc(C(F)F)o4)cc3)c2)c1 [compound 333, 3-[1-[[4-[5-(difluoromethyl)-1,3,4-oxadiazol-2-yl]phenyl]methyl]pyrazol-4-yl]benzamide]
65	> 1e+06	NC(=O)c1cccc(-c2cnn(Cc3ccc(-c4nnc(C(F)F)o4)cn3)c2)c1 [compound 334, 3-[1-[[5-[5-(difluoromethyl)-1,3,4-oxadiazol-2-yl]pyridin-2-yl]methyl]pyrazol-4-yl]benzamide]
62	> 1e+06	Nc1ccc(-c2cn(C(CCCO)c3ccc(-c4nnc(C(F)F)o4)cc3)nn2)cn1 (stereo not shown) [compound 335, 4-(4-(6-aminopyridin-3-yl)-1H-1,2,3-triazol-1-yl)-4-(4-(5-(difluoromethyl)-1,3,4-oxadiazol-2-yl)phenyl)butan-1-ol]
57	> 1e+06	O=C(Nc1cccc(-c2cn(Cc3ncc(-c4nnc(C(F)F)o4)cc3F)nn2)c1)N1CCOCC1 [compound 336, N-[3-[1-[[5-[5-(difluoromethyl)-1,3,4-oxadiazol-2-yl]-3-fluoropyridin-2-yl]methyl]triazol-4-yl]phenyl]morpholine-4-carboxamide]
45	> 1e+06	O=C(Nc1cccc(-c2cn(Cc3ccc(-c4nnc(C(F)F)o4)cc3Cl)nn2)c1)N1CCOCC1 [compound 337, N-[3-[1-[[2-chloro-4-[5-(difluoromethyl)-1,3,4-oxadiazol-2-yl]phenyl]methyl]triazol-4-yl]phenyl]morpholine-4-carboxamide]
101	> 1e+06	O=C(Nc1cccc(-c2cn(Cc3ccc(-c4nnc(C(F)F)o4)c(F)c3F)nn2)c1)N1CCOCC1 [compound 338, N-[3-[1-[[4-[5-(difluoromethyl)-1,3,4-oxadiazol-2-yl]-2,3-difluorophenyl]methyl]triazol-4-yl]phenyl]morpholine-4-carboxamide]
24	> 1e+06	Nc1nc2ccc(-c3cn(Cc4ccc(-c5nnc(C(F)F)o5)cc4F)nn3)cc2s1 [compound 339, 6-[1-[[4-[5-(difluoromethyl)-1,3,4-oxadiazol-2-yl]-2-fluorophenyl]methyl]triazol-4-yl]-1,3-benzothiazol-2-amine]
41	> 1e+06	Nc1nc2ccc(-c3cn(Cc4ccc(-c5nnc(C(F)F)o5)cc4Cl)nn3)cc2s1 [compound 340, 6-[1-[[2-chloro-4-[5-(difluoromethyl)-1,3,4-oxadiazol-2-yl]phenyl]methyl]triazol-4-yl]-1,3-benzothiazol-2-amine]
135	> 1e+06	Nc1nc2ccc(-c3cn(Cc4ccc(-c5nnc(C(F)F)o5)c(F)c4F)nn3)cc2s1 [compound 341, 6-[1-[[4-[5-(difluoromethyl)-1,3,4-oxadiazol-2-yl]-2,3-difluorophenyl]methyl]triazol-4-yl]-1,3-benzothiazol-2-amine]
32	> 1e+06	Nc1nc2ccc(-c3cn(Cc4ncc(-c5nnc(C(F)F)o5)cc4F)nn3)cc2s1 [compound 342, 6-[1-[[5-[5-(difluoromethyl)-1,3,4-oxadiazol-2-yl]-3-fluoropyridin-2-yl]methyl]triazol-4-yl]-1,3-benzothiazol-2-amine]
31	> 1e+06	Nc1nc2ccc(-c3cn(Cc4cc(F)c(-c5nnc(C(F)F)o5)cc4F)nn3)cc2s1 [compound 343, 6-[1-[[4-[5-(difluoromethyl)-1,3,4-oxadiazol-2-yl]-2,5-difluorophenyl]methyl]triazol-4-yl]-1,3-benzothiazol-2-amine]
47	84400	Cn1c(N)nc2cc(-c3cn(Cc4ccc(-c5nnc(C(F)F)o5)cc4Cl)nn3)ccc21 [compound 344, 5-[1-[[2-chloro-4-[5-(difluoromethyl)-1,3,4-oxadiazol-2-yl]phenyl]methyl]triazol-4-yl]-1-methylbenzimidazol-2-amine]
24	168000	Cn1c(N)nc2cc(-c3cn(Cc4ccc(-c5nnc(C(F)F)o5)c(F)c4F)nn3)ccc21 [compound 345, 5-[1-[[4-[5-(difluoromethyl)-1,3,4-oxadiazol-2-yl]-2,3-difluorophenyl]methyl]triazol-4-yl]-1-methylbenzimidazol-2-amine]
26	> 1e+06	Cn1c(N)nc2cc(-c3cn(Cc4ccc(-c5nnc(C(F)F)o5)c(F)c4)nn3)ccc21 [compound 346, 5-[1-[[4-[5-(difluoromethyl)-1,3,4-oxadiazol-2-yl]-3-fluorophenyl]methyl]triazol-4-yl]-1-methylbenzimidazol-2-amine]
27	> 1e+06	Nc1nc2ccc(-c3cn(Cc4ccc(-c5nnc(C(F)F)o5)c(F)c4)nn3)cc2s1 [compound 347, 6-[1-[[4-[5-(difluoromethyl)-1,3,4-oxadiazol-2-yl]-3-fluorophenyl]methyl]triazol-4-yl]-1,3-benzothiazol-2-amine]
26	> 1e+06	Cn1c(N)nc2cc(-c3nnn(Cc4ccc(-c5nnc(C(F)F)o5)cc4F)n3)ccc21 [compound 348, 5-[2-[[4-[5-(difluoromethyl)-1,3,4-oxadiazol-2-yl]-2-fluorophenyl]methyl]tetrazol-5-yl]-1-methylbenzimidazol-2-amine]
48	178000	Cn1c(N)nc2cc(-c3cn(Cc4ncc(-c5nnc(C(F)F)o5)cc4F)nn3)ccc21 [compound 349, 5-[1-[[5-[5-(difluoromethyl)-1,3,4-oxadiazol-2-yl]-3-fluoropyridin-2-yl]methyl]triazol-4-yl]-1-methylbenzimidazol-2-amine]
22	> 1e+06	Cn1c(N)nc2cc(-c3cn(Cc4cc(F)c(-c5nnc(C(F)F)o5)cc4F)nn3)ccc21 [compound 350, 5-[1-[[4-[5-(difluoromethyl)-1,3,4-oxadiazol-2-yl]-2,5-difluorophenyl]methyl]triazol-4-yl]-1-methylbenzimidazol-2-amine]
21	> 1e+06	[2H]C([2H])(c1ccc(-c2nnc(C(F)F)o2)cc1)n1cc(-c2ccc3nc(N)sc3c2)nn1 [compound 351, 6-[1-[dideuterio-[4-[5-(difluoromethyl)-1,3,4-oxadiazol-2-yl]phenyl]methyl]triazol-4-yl]-1,3-benzothiazol-2-amine]
60	> 1e+06	[2H]C([2H])(c1ccc(-c2nnc(C(F)F)o2)cc1)n1cc(-c2cccc(NC(=O)N3CCOCC3)c2)nn1 [compound 352, N-[3-[1-[dideuterio-[4-[5-(difluoromethyl)-1,3,4-oxadiazol-2-yl]phenyl]methyl]triazol-4-yl]phenyl]morpholine-4-carboxamide]
42	> 1e+06	Fc1cc(-c2nnc(C(F)F)o2)cnc1Cn1nnc(-c2cccc(-c3nc4c([nH]3)CCNC4)c2)n1 [compound 353, 2-(difluoromethyl)-5-[5-fluoro-6-[[5-[3-(4,5,6,7-tetrahydro-1H-imidazo[4,5-c]pyridin-2-yl)phenyl]tetrazol-2-yl]methyl]pyridin-3-yl]-1,3,4-oxadiazole]
25	183000	Fc1cc(-c2nnc(C(F)F)o2)ccc1Cn1nnc(-c2cccc(-c3nc4c([nH]3)CCNC4)c2)n1 [compound 354, 2-(difluoromethyl)-5-[3-fluoro-4-[[5-[3-(4,5,6,7-tetrahydro-1H-imidazo[4,5-c]pyridin-2-yl)phenyl]tetrazol-2-yl]methyl]phenyl]-1,3,4-oxadiazole]
62	> 1e+06	Fc1c(Cn2nnc(-c3cccc(-c4nc5c([nH]4)CCNC5)c3)n2)ccc(-c2nnc(C(F)F)o2)c1F [compound 355, 2-(difluoromethyl)-5-[2,3-difluoro-4-[[5-[3-(4,5,6,7-tetrahydro-1H-imidazo[4,5-c]pyridin-2-yl)phenyl]tetrazol-2-yl]methyl]phenyl]-1,3,4-oxadiazole]
